According to ChEMBL document CHEMBL1201862, “PubChem BioAssay data set” (2004):
Calls of active or inactive are those of the source.

Experiments:
Cytochrome P450 3A4 = Cytochrome P450 3A4 (Homo sapiens, UniProt P08684); details: Potency;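 also: confirmatory qHTS run detecting inhibitors and substrates of CYP3A4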
[1] = Luminescence Cell-Based Dose Confirmation HTS to Identify Activators of 5'UTR Stem-Loop Driven Alpha-Synuclein mRNA Translation in H4 Neuroglioblastoma Cells. [Related pubchem assays: 1829 (Project Summary), 1814 (Primary HTS)]; type: functional
[2] = Luminescence Cell-Based Dose Response HTS to Identify Activators of Luciferase Translation or Activity in H4 […] Cells. [Related pubchem assays: 1829 (Project Summary), 1814 (Primary HTS)]; type: functional
H4 = assay: Luminescence Cell-Based Dose Response HTS to Identify Activators of 5'UTR Stem-Loop Driven Prion Protein mRNA Translation in H4 Neuroglioblastoma Cells. [Related pubchem assays: 1829 (Project Summary), 1814 (Primary HTS)]; type: functional; details: Homo sapiens
Caspase-3 = target: T1, Caspase-3 (Homo sapiens, UniProt P42574); type: functional;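 also: Dose-response selectivity test against caspase-3 for candidate inhibitors of sentrin-specific proteases (SENPs)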
T1 sequence (P42574 whole entry): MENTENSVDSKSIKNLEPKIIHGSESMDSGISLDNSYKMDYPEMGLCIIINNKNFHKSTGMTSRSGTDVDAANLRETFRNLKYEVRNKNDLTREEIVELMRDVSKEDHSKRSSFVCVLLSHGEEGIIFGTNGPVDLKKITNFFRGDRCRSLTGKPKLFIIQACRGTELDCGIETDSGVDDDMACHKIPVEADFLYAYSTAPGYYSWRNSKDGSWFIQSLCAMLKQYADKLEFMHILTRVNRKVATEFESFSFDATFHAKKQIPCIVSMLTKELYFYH

[3] = target: T2, Sentrin-specific protease 7 (Homo sapiens, UniProt Q9BQF6); type: functional;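 also: Luminescence-based dose-response confirmation of ultra-high-throughput screening hits, measuring inhibition of SENP7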
T2 sequence (Q9BQF6 whole entry): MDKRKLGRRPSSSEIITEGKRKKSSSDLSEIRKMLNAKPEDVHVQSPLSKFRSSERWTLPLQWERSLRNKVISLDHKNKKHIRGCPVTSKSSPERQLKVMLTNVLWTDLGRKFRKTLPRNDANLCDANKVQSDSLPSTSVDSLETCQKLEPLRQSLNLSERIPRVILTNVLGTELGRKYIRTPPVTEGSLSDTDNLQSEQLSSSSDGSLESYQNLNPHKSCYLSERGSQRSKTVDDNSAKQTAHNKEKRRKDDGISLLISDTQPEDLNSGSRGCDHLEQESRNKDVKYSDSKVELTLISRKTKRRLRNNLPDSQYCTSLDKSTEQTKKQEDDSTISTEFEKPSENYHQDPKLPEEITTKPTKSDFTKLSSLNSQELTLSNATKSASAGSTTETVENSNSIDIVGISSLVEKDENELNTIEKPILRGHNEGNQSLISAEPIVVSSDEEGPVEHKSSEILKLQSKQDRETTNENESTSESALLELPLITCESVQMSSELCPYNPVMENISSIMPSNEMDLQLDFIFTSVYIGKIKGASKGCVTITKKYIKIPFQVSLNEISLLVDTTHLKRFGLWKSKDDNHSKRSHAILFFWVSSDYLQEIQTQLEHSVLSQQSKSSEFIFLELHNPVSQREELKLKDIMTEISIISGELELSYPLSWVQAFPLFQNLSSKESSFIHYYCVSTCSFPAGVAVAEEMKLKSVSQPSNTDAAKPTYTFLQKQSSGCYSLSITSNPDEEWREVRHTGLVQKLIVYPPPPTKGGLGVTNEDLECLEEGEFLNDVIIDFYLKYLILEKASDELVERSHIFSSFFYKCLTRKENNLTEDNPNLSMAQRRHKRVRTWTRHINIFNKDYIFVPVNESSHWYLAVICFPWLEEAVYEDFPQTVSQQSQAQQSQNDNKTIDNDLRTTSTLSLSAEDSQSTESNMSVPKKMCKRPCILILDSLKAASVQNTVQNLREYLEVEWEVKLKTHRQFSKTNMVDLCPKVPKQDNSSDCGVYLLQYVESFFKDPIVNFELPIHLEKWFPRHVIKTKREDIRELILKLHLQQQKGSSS

[4] = target: T3, Sentrin-specific protease 6 (Homo sapiens, UniProt Q9GZR1); type: functional;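 also: Luminescence-based dose-response confirmatory assay of SENP6 inhibition, following up an ultra-high-throughput screen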
T3 sequence (Q9GZR1 whole entry): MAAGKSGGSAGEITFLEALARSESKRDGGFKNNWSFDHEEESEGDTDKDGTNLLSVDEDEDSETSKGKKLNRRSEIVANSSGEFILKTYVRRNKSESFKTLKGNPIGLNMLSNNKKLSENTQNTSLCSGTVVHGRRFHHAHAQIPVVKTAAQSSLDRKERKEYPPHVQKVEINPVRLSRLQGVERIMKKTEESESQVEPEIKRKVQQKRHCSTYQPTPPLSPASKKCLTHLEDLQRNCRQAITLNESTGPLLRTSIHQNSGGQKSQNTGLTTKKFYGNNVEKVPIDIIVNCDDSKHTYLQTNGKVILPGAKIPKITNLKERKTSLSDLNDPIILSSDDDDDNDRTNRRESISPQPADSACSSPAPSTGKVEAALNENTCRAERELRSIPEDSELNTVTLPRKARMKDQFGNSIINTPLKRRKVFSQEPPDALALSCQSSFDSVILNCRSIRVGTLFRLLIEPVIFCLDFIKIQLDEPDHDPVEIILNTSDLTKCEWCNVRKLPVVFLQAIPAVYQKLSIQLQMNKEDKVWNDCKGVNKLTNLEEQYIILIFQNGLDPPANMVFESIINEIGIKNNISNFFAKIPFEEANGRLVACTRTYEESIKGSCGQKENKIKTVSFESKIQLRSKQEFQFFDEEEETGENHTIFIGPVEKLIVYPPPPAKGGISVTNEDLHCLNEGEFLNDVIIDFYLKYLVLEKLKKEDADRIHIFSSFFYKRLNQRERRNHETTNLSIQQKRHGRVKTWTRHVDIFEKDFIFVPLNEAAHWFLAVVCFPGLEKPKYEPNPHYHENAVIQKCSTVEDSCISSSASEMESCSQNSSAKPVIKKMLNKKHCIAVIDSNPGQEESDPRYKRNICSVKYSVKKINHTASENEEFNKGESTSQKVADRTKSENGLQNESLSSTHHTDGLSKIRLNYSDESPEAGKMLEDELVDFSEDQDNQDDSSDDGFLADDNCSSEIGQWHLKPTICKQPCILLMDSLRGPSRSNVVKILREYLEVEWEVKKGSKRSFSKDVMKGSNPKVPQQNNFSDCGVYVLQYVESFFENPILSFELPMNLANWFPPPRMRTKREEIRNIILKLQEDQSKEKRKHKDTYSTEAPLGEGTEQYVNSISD

[5] = target: T4, Sentrin-specific protease 8 (Homo sapiens, UniProt Q96LD8); type: functional;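 also: luminescence read-out of SENP8 inhibition, dose-response confirmation following an ultra-high-throughput screen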
T4 sequence (Q96LD8 whole entry): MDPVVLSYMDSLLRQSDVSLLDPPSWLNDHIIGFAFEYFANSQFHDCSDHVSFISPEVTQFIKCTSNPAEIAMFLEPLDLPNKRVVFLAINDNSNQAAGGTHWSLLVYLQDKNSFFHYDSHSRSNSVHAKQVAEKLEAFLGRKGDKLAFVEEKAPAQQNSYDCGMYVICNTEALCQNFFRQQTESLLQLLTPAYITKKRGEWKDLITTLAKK

Protein skinhead-1 = target: T5, Protein skinhead-1 (Caenorhabditis elegans, UniProt P34707); type: functional
T5 sequence (P34707 whole entry): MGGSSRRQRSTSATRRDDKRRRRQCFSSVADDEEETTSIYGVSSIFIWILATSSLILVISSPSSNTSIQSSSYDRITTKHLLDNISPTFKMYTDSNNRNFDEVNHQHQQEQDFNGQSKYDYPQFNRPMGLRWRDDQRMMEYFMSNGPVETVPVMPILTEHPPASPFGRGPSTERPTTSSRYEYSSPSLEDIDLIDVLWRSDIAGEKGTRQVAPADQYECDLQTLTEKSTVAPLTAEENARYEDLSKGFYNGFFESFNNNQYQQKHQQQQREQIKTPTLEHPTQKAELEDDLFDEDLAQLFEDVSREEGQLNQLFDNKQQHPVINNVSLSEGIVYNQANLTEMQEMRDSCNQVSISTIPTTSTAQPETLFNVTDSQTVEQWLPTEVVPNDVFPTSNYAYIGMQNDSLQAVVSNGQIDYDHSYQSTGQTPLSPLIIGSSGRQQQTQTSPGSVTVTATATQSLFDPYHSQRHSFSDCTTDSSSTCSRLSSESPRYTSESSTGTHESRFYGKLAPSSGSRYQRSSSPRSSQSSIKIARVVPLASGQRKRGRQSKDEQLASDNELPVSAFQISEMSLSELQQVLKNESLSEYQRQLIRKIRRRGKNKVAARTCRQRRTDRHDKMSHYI

[6] = HEK-293T viability loss after treatment – luminescence, T-cell screen hits, cytotoxicity control for TCR NF-kB inhibitor project, dose response (AID 489026); type: functional, cell-based;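 also: cells exposed to compound about 14 hours before the viability readout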
[7] = target: T6, Microphthalmia-associated transcription factor (Homo sapiens, UniProt O75030); assay: reducers of TRPM1 reporter luminescence, concentration series – cell-based, SK-MEL-5, cherry-picked, set 3, MITF inhibitor project, dose response (AID 493073); type: functional;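 also: SK-MEL-5 melanoma cells with luciferase driven by the MITF target TRPM1 promoter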
T6 sequence (O75030 whole entry): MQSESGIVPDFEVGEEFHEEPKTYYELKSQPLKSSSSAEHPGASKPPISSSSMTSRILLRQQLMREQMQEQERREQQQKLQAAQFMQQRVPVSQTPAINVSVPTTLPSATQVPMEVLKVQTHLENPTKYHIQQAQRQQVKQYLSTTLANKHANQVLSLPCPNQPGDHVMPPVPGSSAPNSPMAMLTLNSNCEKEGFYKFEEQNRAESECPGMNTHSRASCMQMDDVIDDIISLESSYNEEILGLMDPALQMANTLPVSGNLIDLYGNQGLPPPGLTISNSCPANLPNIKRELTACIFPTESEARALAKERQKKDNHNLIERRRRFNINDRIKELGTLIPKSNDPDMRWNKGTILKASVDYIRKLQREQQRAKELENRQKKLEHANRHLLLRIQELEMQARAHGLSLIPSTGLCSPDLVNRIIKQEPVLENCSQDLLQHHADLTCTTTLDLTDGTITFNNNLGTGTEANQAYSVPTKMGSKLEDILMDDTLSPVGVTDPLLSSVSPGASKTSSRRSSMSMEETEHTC

cells [8] = type: functional, cell-based
cells [9] = type: functional, cell-based; remark: listed apart in the source
[10] = NIH-3T3 fibroblast cytotoxicity, dose response, cytotoxicity control, cell-based, fluorescence, Alamar Blue, secondary assay (AID 2327); type: functional;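 also: NIH-3T3 mouse fibroblasts cultured with fluconazole at 8 µg/mL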
[11] = fluconazole-exposed Candida albicans growth modulators – fluorescence, retest, confirmation (AID 2467); type: functional, cell-based

Cytochrome P450 3A4, sequence (P08684 whole entry): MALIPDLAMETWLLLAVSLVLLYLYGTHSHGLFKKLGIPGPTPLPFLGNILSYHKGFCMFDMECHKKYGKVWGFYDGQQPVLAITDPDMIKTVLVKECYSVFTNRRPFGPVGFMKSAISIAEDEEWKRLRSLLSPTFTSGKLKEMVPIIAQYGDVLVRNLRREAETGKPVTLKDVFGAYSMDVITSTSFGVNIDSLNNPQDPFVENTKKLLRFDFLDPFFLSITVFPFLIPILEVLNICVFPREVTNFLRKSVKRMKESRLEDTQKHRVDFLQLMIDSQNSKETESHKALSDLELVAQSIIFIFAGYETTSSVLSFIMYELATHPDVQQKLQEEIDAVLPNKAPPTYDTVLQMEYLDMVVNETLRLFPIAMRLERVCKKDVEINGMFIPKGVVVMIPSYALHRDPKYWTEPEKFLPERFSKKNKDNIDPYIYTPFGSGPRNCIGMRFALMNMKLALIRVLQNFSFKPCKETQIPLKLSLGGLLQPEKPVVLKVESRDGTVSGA

## COC1C=CO[C@@]2(C)Oc3c(C)c(O)c4c(O)c(c5c(nc6cc(C)ccn65)c4c3C2=O)NC(=O)/C(C)=C\C=CC(C)C(O)[C@@H](C)C(O)C(C)[C@@H](OC(C)=O)C1C (stereo partly drawn)
Cytochrome P450 3A4
  AC50: 7.94 µM (inconclusive)

## CCN(CC)CCCC(C)n1c(-c2ccccc2)nc2c(N3CCOCC3)nc(C)nc21 (stereo not drawn)
Cytochrome P450 3A4
  AC50: 15.8 µM (inconclusive)

## COC(=O)c1c(C)[nH]c(C(=O)OCc2ccc(F)cc2)c1C
[1]
  EC50: 0.115 µM (active)
[2]
  EC50: 23.8 µM (active)
H4
  EC50: 9.55 µM (active)

## O=C(Cc1ccccc1F)Nc1ccc(SC(F)F)cc1
Caspase-3
  IC50: 41.8 µM (active)
[3]
  IC50: 13.7 µM (active)
[4]
  IC50: > 100 µM (inactive)
[5]
  IC50: > 100 µM (inactive)

## O=C(/C=C/c1cccs1)c1ccc(N2CCOCC2)cc1
Caspase-3
  IC50: 6.94 µM (active)
[3]
  IC50: 2.77 µM (active)
[4]
  IC50: 5.47 µM (active)
[5]
  IC50: 5.04 µM (active)
Protein skinhead-1
  IC50: > 100 µM (inactive)

## O=C(Nc1ccc(NC(=O)c2cccs2)c(Cl)c1)c1cccs1
Caspase-3
  IC50: 17.4 µM (active)
[3]
  IC50: 6.62 µM (active)
[4]
  IC50: 24.3 µM (active)
[5]
  IC50: 27.6 µM (active)

## Cc1cc(NC(=O)COC(=O)c2ccc(S(=O)(=O)N3CCCc4ccccc43)cc2)no1
[6]
  IC50: > 80 µM (inactive)

## O/C(=C\c1nc2ccccc2[nH]1)c1cccs1
Caspase-3
  IC50: 9.98 µM (active)
[3]
  IC50: 7.98 µM (active)
[4]
  IC50: 8.18 µM (active)
[5]
  IC50: 13.1 µM (active)

## COc1ccc(NS(=O)(=O)c2cc(NC(=O)CNC(=O)c3cccc(OC)c3)ccc2C)cc1
[7]
  AC50: 11 µM (active)

## Cc1nc(Sc2nnnn2C)c2c3c(sc2n1)CCC3
[6]
  IC50: > 80 µM (inactive)
[7]
  AC50: 4.98 µM (active)

## COC(=O)c1cccc(C23CC4(C2)[C@H](CN(Cc2ccc(C(F)(F)F)cc2)[C@@H]4c2ccccc2)C3c2ccc(Cl)nc2)c1 (stereo partly drawn)
Cytochrome P450 3A4
  AC50: 3.98 µM (inconclusive)

## CCCn1c(-c2ccc(F)cc2)nc2c(NCCN(C(C)C)C(C)C)nc(C)nc21
Cytochrome P450 3A4
  AC50: 10 µM (inconclusive)

## O=C(NCC1CCCO1)c1cc(-c2ccccc2)on1 (stereo not drawn)
[1]
  EC50: 11.6 µM (active)
[2]
  EC50: 35.5 µM (active)
Cells [8]
  EC50: 17.2 µM (active)
H4
  EC50: > 120 µM (not active)
Cells [9]
  EC50: > 350 µM (not active)

## CC(=O)c1sc(N/N=C\c2ccccc2O)nc1C
Caspase-3
  IC50: 11 µM (active)
[3]
  IC50: 3.4 µM (active)
[4]
  IC50: 10.3 µM (active)
[5]
  IC50: 16.3 µM (active)

## Cc1scc(C(=O)N/N=C/c2ccc([N+](=O)[O-])o2)c1C
[10]
  EC50: > 150 µM (inactive)
[11]
  EC50: 1.48 µM (active)
[7]
  AC50: 2.19 µM (active)

## C#CCCCCCCCCCCCC(O)CC(O)COC(C)=O (stereo not drawn) [AVOCADYNE ACETATE]
Cytochrome P450 3A4
  AC50: 39.8 µM (inconclusive)

## S=c1ccss1 [DITHIOLETHIONE]
Cytochrome P450 3A4
  AC50: 10 µM (inconclusive)

## N#Cc1nn(-c2c(Cl)cc(C(F)(F)F)cc2Cl)c(N)c1[S+]([O-])C(F)(F)F (stereo not drawn) [FIPRONIL]
Cytochrome P450 3A4
  AC50: 25.1 µM (inconclusive)
